US7956040B2, “Combination of catechin and quercetin for pharmaceutical or dietary use” (Giuliani International Limited, priority 2000, dated 2011)

What was measured:
[1] = system: platelets; test: Production of hydrogen peroxide in DCFH-DA-loaded platelets stimulated with collagen (flow cytometry); type: cell-based, human; details: for production of hydrogen peroxide caused by collagen: catechin or quercetin alone, scalar concentrations (Cat 50 and 100, Q 10 and 20 μmol/L), 10 and 20 mg of collagen/L; for formation of hydrogen peroxide caused by collagen: each compound alone at the low quantities (catechin 25 μmol/L; quercetin 5 μmol/L)
Description: (§1) DCFH-DA was added to the PSEC (final concentration: 40 μmol/L); after 15 minutes of incubation with or without catechin or quercetin, the PSEC were activated with collagen. The reaction was stopped with 2 mmol EGTA/L after 1 min. The samples were analysed in a Coulter XL-MCL flow cytometer (Hialeah, Fla.) equipped with an argon laser (emission 480 nm) set up for measuring the logarithmic diffusion of direct light, which is a measure of the dimensions of the particle; logarithmic diffusion of light at 90°, which is a measure of the granularity of the cell; and green fluorescence (DCF) 510-550 nm. The fluorescence signal generated by the probe was expressed as the stimulation index, i.e. intensity of mean channel fluorescence of the stimulated platelets/intensity of mean channel fluorescence of the unstimulated platelets. Platelet aggregation in vitro was evaluated according to Born. The collagen was used at concentrations of 2-4 mg/L.
Flow cytometry makes use of the properties of DCFH-DA, which diffuses rapidly through the cellular membranes and is then trapped inside the cell through a reaction of deacetylation. In the presence of hydrogen peroxide, this compound is oxidized to dichlorofluorescein (DCF), which is highly fluorescent.

[2] = system: platelets; test: Platelet aggregation in vitro caused by collagen (according to Born); type: cell-based, human; details: for influence on platelet aggregation: 25 μmol of catechin/L or 5 μmol of quercetin/L used on their own; for platelet aggregation caused by collagen: catechin or quercetin alone, two concentrations of collagen (2 and 4 mg/L)
Description: as §1, with “The reaction was stopped with 2 mmol EGTA/L after 1 min.” left out

[3] = system: platelets; test: Cytosol platelet Ca2+ concentration / calcium mobilization (Fura 2) after collagen; type: cell-based, human; details: for decrease in calcium mobilization: 4 mg of collagen/L; for mobilization of calcium (percentage change in intracellular calcium concentration): catechin or quercetin alone
Description: The concentrations of cytosol platelet Ca^2+ were measured using the fluorescent indicator dye Fura 2, according to Grynkiewicz et al.; the changes in fluorescence were then monitored with a fluorimeter SFM 25 (Kontron, Zurich, Switzerland) set at emission wavelength of 510 nm and excitation wavelength of 340 nm.

[4] = system: platelets; test: Platelet adhesion to collagen ([3H]oleic acid-labelled platelets); type: cell-based, human; details: 50 μmol of collagen/L [sic]
Description: The activation of platelets by collagen is a multistage process. Thus, after being attached initially to the platelets via the pathways of the second messenger, collagen stimulates the release of thromboxane and ADP, which are important platelet agonists that induce aggregation. To study the adhesion of the platelets to collagen (50 mg/L) without the interference of aggregation and of the activation induced by all the known agonists released by the platelet granules on stimulation by collagen, the platelets were subjected to preincubation with aspirin, a cyclooxygenase inhibitor, with the ADP removal system phosphocreatine and creatine kinase, and with the fibrinogen-fibronectin antagonist RDGS (13).

[5] = system: platelets; test: Platelet function / platelet activation, overall conclusion of the study; type: cell-based, human; details: individually at 5 μmol of quercetin/L or 20 μmol of catechin/L (so in the source)
[6] = system: platelet aggregation; details: high concentrations, several literature studies; cited from earlier work
[7] = system: phospholipase C; test: Activation of phospholipase C: IP3 production in collagen-stimulated platelets; details: for decrease in IP3 production: 10 mg of collagen/L; for production of [32P]IP3 in platelets stimulated by collagen: catechin or quercetin alone
Description: Drug-free human blood obtained from healthy volunteers was coagulated with acid:citrate:dextrose. Platelet-rich plasma was centrifuged at 800×g for 20 min at room temperature and the pellet was suspended in a volume equal to half the initial volume of autologous plasma, low in platelets. The platelet suspensions were incubated for 1 h at 37° C. with 3 μmol of Fura 2/AM per L, 40 μmol DCFH-DA/L, 7.4 GBq (2 Ci) ^32Pi/L, or 3.7 MBq (1 mCi) [^3H]oleic acid/L. The platelets were washed by exclusion chromatography on Sepharose 2B using a Ca^2+-free Tyrodes buffer (134 mmol NaCl/L, 2.9 mmol KCl/L, 0.34 mmol Na2HPO4/L and 2 mmol MgCl2/L) containing 0.2% of bovine serum albumin, 5 mmol glucose/L and 10 mmol HEPES/L, pH 7.35.
The production of 1,3,4-inositol triphosphate (IP3, an indicator of activation of phospholipase C, was analysed 30 s after platelet activation according to Pulcinelli et al. J. Chromatogr. 1992,575:51-5. The collagen was used at a concentration of 10 mg/L, which was the lowest concentration capable of inducing a reproducible response. The platelet suspensions identified with [^3H]oleic acid were used for evaluating platelet adhesion to collagen (50 mg/L) according to Smith and Dangelmaier.

[8] = 100 μmol catechin/L or 20 μmol quercetin/L
[9] = catechin (50 and 100 μmol/L) or quercetin (10 and 20 μmol/L) on their own

Molecule | production of hydrogen peroxide caused by collagen [1] | formation of hydrogen peroxide caused by collagen [1] | inhibition of platelet aggregation ([2]; 20 μmol of quercetin/L, 2 mg/L collagen) | inhibition of platelet aggregation ([2]; 20 μmol of quercetin/L, 4 mg/L collagen) | influence on platelet aggregation [2] | platelet aggregation caused by collagen [2] | decrease in calcium mobilization ([3]; 20 μmol of quercetin/L) | mobilization of calcium (percentage change in intracellular calcium concentration) [3] | platelet adhesion to collagen [4, 8] | platelet adhesion to collagen [4, 9] | effect on platelet function [5] | platelet aggregation in vitro [6] | decrease in IP3 production ([7]; 20 μmol of quercetin/L) | production of [32P]IP3 in platelets stimulated by collagen [7] | inhibition of platelet aggregation ([2]; 100 μmol of catechin/L, 2 mg of collagen/L) | inhibition of platelet aggregation ([2]; 100 μmol of catechin/L, 4 mg of collagen/L) | decrease in calcium mobilization ([3]; 100 μmol of catechin/L) | decrease in IP3 production ([7]; 100 μmol of catechin/L)
O=c1c(O)c(-c2ccc(O)c(O)c2)oc2cc(O)cc(O)c12 [quercetin] | inhibited the production of hydrogen peroxide | neither of the two compounds alone at such low quantities is reported to have had any inhibitory effect | 50% | 43% | no influence on platelet aggregation | inhibited platelet aggregation | 65% | inhibited the mobilization of calcium | suppressed significantly | inhibited platelet adhesion to collagen | no effect on platelet function | inhibit platelet aggregation | 93% | inhibited |  |  |  | 
Oc1ccc(C=Cc2cc(O)cc(O)c2)cc1 [resveratrol] |  |  |  |  |  |  |  |  |  |  |  | inhibit platelet aggregation |  |  |  |  |  | 
catechin | inhibited the production of hydrogen peroxide | neither of the two compounds alone at such low quantities is reported to have had any inhibitory effect |  |  | no influence on platelet aggregation | inhibited platelet aggregation |  | inhibited the mobilization of calcium | suppressed significantly | inhibited platelet adhesion to collagen | no effect on platelet function | inhibit platelet aggregation |  | inhibited | ≈ 75% | ≈ 39% | 71% | 50%
